Reference: patent publication US8263385B2, “S-triazine-herbicide-degrading bacteria, product for the bioremediation and method of bioremediation” (priority 2007, dated 2012)

System: Pseudomonas sp. strain MHP41
Test: Antibiotic sensitivity of strain MHP41
Format: cell-based

SMILES	sensitivity or resistance of the strain to the antibiotic
CC1(C)S[C@@H]2[C@H](NC(=O)[C@H](N)c3ccccc3)C(=O)N2[C@H]1C(=O)O [ampicillin]	natural resistance
CC1(C)S[C@@H]2[C@H](NC(=O)C(C(=O)O)c3ccccc3)C(=O)N2[C@H]1C(=O)O (stereo partly drawn) [carbamicillin]	sensitive
[H]/N=C(/N)N[C@H]1[C@H](O)[C@@H](O)[C@H](O[C@@H]2O[C@@H](C)[C@](O)(C=O)[C@H]2O[C@@H]2O[C@@H](CO)[C@H](O)[C@@H](O)[C@@H]2NC)[C@@H](N/C(N)=N\[H])[C@@H]1O [streptomycin]	sensitive
